Melting point, GI50 and inhibition data for 15 molecules are collected here from US20160297761A1, “NOVEL INHIBITORS OF GLUTAMINASE” (RHIZEN PHARMACEUTICALS SA, priority 2014, published 2016).

The structures appear in SMILES notation. Like-named read-outs stand apart in the source and are kept apart here.

The test system of one data set is cancer cell lines. The experiment in a line: In vitro cell proliferation assay in cancer cell lines (MTT dye reduction, 72 h). Type of data set: cell-based. The note with it: cancer cell line not named, 10% FBS media. On the procedure:
Assay 4: In Vitro Cell Proliferation Assay in Cancer Cell Lines
Growth inhibition assays were carried out using 10% FBS supplemented media. Cells were seeded at a concentration of 5000-20,000 cells/well in a 96-well plate. Test compounds at a concentration range from 0.01 to 10000 nM were added after 24 hours. Growth was assessed using the 3-[4,5-dimethylthiazol-2-yl]-2,5-diphenyltetrazolium bromide (MIT) dye reduction test at 0 h (prior to the addition of the test compound) and 72 hours after the addition of test compound. Absorbance was read on a Fluostar Optima (BMG Labtech, Germany) at a wave length of 450 nm. Data were analysed using GraphPad Prism and percent inhibition due to the test compound compared to the control was calculated accordingly.

Data set [1] addresses T1, L-glutaminase present in mice brain homogenate (Glutaminase(Brain)) (Mus musculus, UniProt D3Z7P3).
T1 sequence (D3Z7P3 55-674): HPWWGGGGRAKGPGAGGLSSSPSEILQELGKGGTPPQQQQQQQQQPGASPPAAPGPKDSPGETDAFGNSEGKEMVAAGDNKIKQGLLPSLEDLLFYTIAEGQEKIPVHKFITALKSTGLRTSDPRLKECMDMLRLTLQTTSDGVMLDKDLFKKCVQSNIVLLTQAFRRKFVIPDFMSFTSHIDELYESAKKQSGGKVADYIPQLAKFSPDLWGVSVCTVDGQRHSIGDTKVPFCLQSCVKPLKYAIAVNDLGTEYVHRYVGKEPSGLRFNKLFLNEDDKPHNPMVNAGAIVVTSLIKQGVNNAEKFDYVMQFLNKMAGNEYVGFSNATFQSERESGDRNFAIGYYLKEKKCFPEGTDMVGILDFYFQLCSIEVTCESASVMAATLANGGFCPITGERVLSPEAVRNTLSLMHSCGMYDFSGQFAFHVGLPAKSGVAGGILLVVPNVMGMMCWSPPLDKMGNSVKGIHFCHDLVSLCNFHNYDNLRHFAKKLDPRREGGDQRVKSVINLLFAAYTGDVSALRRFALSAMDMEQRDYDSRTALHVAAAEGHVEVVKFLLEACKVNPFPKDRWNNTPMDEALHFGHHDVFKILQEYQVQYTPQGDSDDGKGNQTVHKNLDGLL
The experiment in a line: Glutaminase enzyme activity using glutaminase enzyme from mice brain/kidney homogenate (Nessler's reagent, ammonia). It counts as biochemical. The following applies: for inhibition at 0.1 µM: read-out: Glutaminase(Brain) activity % inhibition 0.1 μM; for inhibition at 1 µM: read-out: Glutaminase(Brain) activity % inhibition @1 μM. Here is the method:
Assay 3: Determination of Glutaminase Enzyme Activity Using Glutaminase
Enzyme from Mice Brain/Kidney
Step 1: Preparation of Tissue Homogenates: Male Balb/c mice were administered 0.28 M ammonium chloride in drinking water for 7 days. The animals were sacrificed and brain/kidney organs collected on dry ice. […] The tissue was homogenized and supernatants were stored at −80° C. until the enzyme assay was performed.
Aim: Compounds were assessed for their ability to inhibit the enzymatic activity of L-glutaminase present in mice brain/kidney homogenate.
Protocol: The assay was performed using a colorimetric method using Nessler's Reagent by quantifying the amount of ammonia formed as a by product during the enzymatic conversion of L-glutamine to glutamate. In the routine assay, 16 μl of tissue homogenate is added to 33 μl of Tris-Hcl phosphate buffer (pH 8) along with 1 μl of DMSO/test compound containing the desired final concentration and vortexed briefly. 50 μl of 20 mM L-glutamine Tris buffer is added to start the reaction and incubated for 15 minutes at 37° C. The ammonia formed is detected by adding 20 μl of reaction mixture to cold water in a 96 well plate followed by 20 μl of Nessler's reagent. The colour developed is measured at 450 nm. Data Analysis: Activity of the test compound is reported as % inhibition and the data is analyzed using Graphpad Prism (Graphpad software; San Diego Calif.) for IC50 determination.

The molecule `O=C(Cc1ccncc1)Nc1ccc(CCCCc2nnc(NC(=O)Cc3cccc(OC(F)(F)F)c3)s2)cn1` [Example-22, 2-(Pyridin-4-yl)-N-(5-(4-(5-(2-(3-(trifluoromethoxy)phenyl)acetamido)-1,3,4-thiadiazol-2-yl)butyl)pyridin-2-yl)acetamide] returned a melting point of 135 to 137 °C. The same molecule had a GI50 in the data set on cancer cell lines of 1 to 5 µM. In addition, the inhibition at 0.1 µM in data set [1] (0.1 μM, mice brain homogenate) is below 25%. Further, in data set [1] (mice brain homogenate), the inhibition at 1 µM was in the range of 50 to 75%.

Molecule `CC(Cl)C(=O)Nc1nnc(CCCCc2ccc(NC(=O)Cc3cccc(OC(F)(F)F)c3)nc2)s1` (stereo not shown) [Example-23, 2-Chloro-N-(5-(4-(6-(2-(3-(trifluoromethoxy)phenyl)acetamido)pyridin-3-yl)butyl)-1,3,4-thiadiazol-2-yl)propanamide] came in with a melting point of 132 to 134 °C. The GI50 with cancer cell lines was 5 to 10 µM. In addition, in data set [1] (0.1 μM, mice brain homogenate), the inhibition at 0.1 µM is below 25%. In data set [1] (mice brain homogenate), the inhibition at 1 µM is below 25%.

As for `O=C(Cc1ccccn1)Nc1nnc(CCCCc2ccc(NC(=O)Cc3cccc(OC(F)(F)F)c3)c(F)c2)s1` [Example-41, N-(5-(4-(3-Fluoro-4-(2-(3-(trifluoromethoxy)phenyl)acetamido)phenyl)butyl)-1,3,4-thiadiazol-2-yl)-2-(pyridin-2-yl)acetamide], the melting point was in the range of 164 to 168 °C. Besides, the inhibition at 0.1 µM in data set [1] (0.1 μM, mice brain homogenate) is below 25%. Further, the inhibition at 1 µM in data set [1] (mice brain homogenate) was below 25%.

Consider `O=C(Cc1cccc(OC(F)(F)F)c1)Nc1nnc(CC2CCC(Cc3nnc(NC(=O)Cc4ccccn4)s3)CC2)s1` (stereo not shown) [Example-105, 2-(Pyridin-2-yl)-N-(5-((4-((5-(2-(3-(trifluoromethoxy)phenyl)acetamido)-1,3,4-thiadiazol-2-yl)methyl)cyclohexyl)methyl)-1,3,4-thiadiazol-2-yl)acetamide], for which the melting point was 278 to 280 °C. The inhibition at 0.1 µM in data set [1] (0.1 μM, mice brain homogenate) was below 25%. Further, in data set [1] (mice brain homogenate), the inhibition at 1 µM is below 25%.

For the molecule `O=C(Cc1cccc(OC(F)(F)F)c1)Nc1ccc(CCCCc2ccc(NC(=O)Cc3cccc(OC(F)(F)F)c3)nc2)cn1` [Example-40, N,N′-(5,5′-(Butane-1,4-diyl)bis(pyridine-5,2-diyl))bis(2-(3-(trifluoromethoxy)phenyl)acetamide)], the melting point is 153 to 155 °C. Moreover, the inhibition at 0.1 µM in data set [1] (0.1 μM, mice brain homogenate) was below 25%. Further, the inhibition at 1 µM in data set [1] (mice brain homogenate) was below 25%.

As for `O=C(Cc1cccc(OC(F)(F)F)c1)Nc1ccc(CCCCc2nnc(NC(=O)Cn3cccn3)s2)cn1` [Example-27, N-(5-(4-(5-(2-(1H-pyrazol-1-yl)acetamido)-1,3,4-thiadiazol-2-yl)butyl)pyridin-2-yl)-2-(3-(trifluoromethoxy)phenyl)acetamide], the melting point lay in the range of 174 to 178 °C. Further, the GI50 in the data set on cancer cell lines was 5 to 10 µM. Also, the inhibition at 0.1 µM in data set [1] (0.1 μM, mice brain homogenate) is below 25%. Further, the inhibition at 1 µM in data set [1] (mice brain homogenate) was 50 to 75%.

As to `O=C(Cc1ccccc1)Nc1nnc(C2CCC(c3nnc(NC(=O)Cc4ccccc4)s3)CC2)s1` (stereo not shown) [Example-101, N,N′-(5, 5′-(cyclohexane-1,4-diyl)bis(1,3,4-thiadiazole-5,2-diyl))bis(2-phenylacetamide)], the melting point lay within 281 to 283 °C.

For `Cc1nc(NC(=O)Cc2cccc(OC(F)(F)F)c2)ccc1CCCCc1nnc(NC(=O)Cc2ccccn2)s1` [Example-9, N-(6-Methyl-5-(4-(5-(2-(pyridin-2-yl)acetamido)-1,3,4-thiadiazol-2-yl)butyl)pyridin-2-yl)-2-(3-(trifluoromethoxy)phenyl)acetamide], the melting point fell in the range of 96 to 101 °C. Besides, the inhibition at 0.1 µM in data set [1] (0.1 μM, mice brain homogenate) is below 25%. Moreover, the inhibition at 1 µM in data set [1] (mice brain homogenate) is below 25%.

Molecule `Cc1ccc(F)c(C(=O)Nc2nnc(CCCCc3ccc(NC(=O)Cc4cccc(OC(F)(F)F)c4)nc3)s2)n1` [Example-37, 3-Fluoro-6-methyl-N-(5-(4-(6-(2-(3-(trifluoromethoxy)phenyl)acetamido)pyridin-3-yl)butyl)-1,3,4-thiadiazol-2-yl)picolinamide] returned a melting point of 130 to 133 °C. Also, the inhibition at 0.1 µM in data set [1] (0.1 μM, mice brain homogenate) is below 25%. The inhibition at 1 µM in data set [1] (mice brain homogenate) is below 25%.

`O=C(Cc1cccnc1)Nc1nnc(C2CCC(c3nnc(NC(=O)Cc4cccnc4)s3)CC2)s1` (stereo not shown) [Example-102, N,N′-(5,5′-(cyclohexane-1,4-diyl)bis(1,3,4-thiadiazole-5,2-diyl))bis(2-(pyridin-3-yl)acetamide)] registered a melting point of 180 to 182 °C. Also, the inhibition at 0.1 µM in data set [1] is below 25%.

Turning to `O=C(Cc1cccc(OC(F)(F)F)c1)Nc1nnc(CC2CCC(Cc3nnc(NC(=O)Cc4cccc(OC(F)(F)F)c4)s3)CC2)s1` (stereo not shown) [Example-104, N,N′-(5,5′-(cyclohexane-1,4-diylbis(methylene))bis(1,3,4-thiadiazole-5,2-diyl))bis(2-(3-(trifluoromethoxy)phenyl)acetamide)], the melting point fell in the range of 240 to 244 °C. Further, the inhibition at 0.1 µM in data set [1] (0.1 μM, mice brain homogenate) was below 25%. Further, the inhibition at 1 µM in data set [1] (mice brain homogenate) is below 25%.

Consider `O=C(Cc1cccnc1)Nc1nnc(CC2CCC(Cc3nnc(NC(=O)Cc4cccnc4)s3)CC2)s1` (stereo not shown) [Example-103, N,N′-(5,5′-(cyclohexane-1,4-diylbis(methylene))bis(1,3,4-thiadiazole-5,2-diyl))bis(2-(pyridin-3-yl)acetamide)], for which the melting point lay within 268 to 270 °C. In addition, the inhibition at 0.1 µM in data set [1] (0.1 μM, mice brain homogenate) was 25 to 50%. The inhibition at 1 µM in data set [1] (mice brain homogenate) fell in the range of 25 to 50%.

For the molecule `O=C(Cc1cccnc1)Nc1nnc(CCCCc2ccc(NC(=O)Cc3cccc(OC(F)(F)F)c3)c(F)c2)s1` [Example-42, N-(5-(4-(3-Fluoro-4-(2-(3-(trifluoromethoxy)phenyl)acetamido)phenyl)butyl)-1,3,4-thiadiazol-2-yl)-2-(pyridin-3-yl)acetamide], the melting point was in the range of 176 to 180 °C. Besides, in data set [1] (0.1 μM, mice brain homogenate), the inhibition at 0.1 µM is below 25%. In addition, in data set [1] (mice brain homogenate), the inhibition at 1 µM is below 25%.

Molecule `O=C(Cc1cccc(OC(F)(F)F)c1)Nc1ccc(CCCCc2nnc(NC(=O)Cc3cccnc3)s2)cn1` [Example-10, 2-(Pyridin-3-yl)-N-(5-(4-(6-(2-(3-(trifluoromethoxy)phenyl)acetamido)pyridin-3-yl)butyl)-1,3,4-thiadiazol-2-yl)acetamide] had a melting point of 176 to 178 °C. Besides, the inhibition at 0.1 µM in data set [1] (0.1 μM, mice brain homogenate) was in the range of 75 to 100%. Moreover, the inhibition at 1 µM in data set [1] (mice brain homogenate) lay in the range of 75 to 100%.

The molecule `O=C(Cc1ccccn1)Nc1ccc(CCCCc2nnc(NC(=O)Cc3cccc(OC(F)(F)F)c3)s2)cn1` [Example-8, 2-(Pyridin-2-yl)-N-(5-(4-(5-(2-(3-(trifluoromethoxy)phenyl)acetamido)-1,3,4-thiadiazol-2-yl)butyl)pyridin-2-yl)acetamide] showed a melting point of 176 to 178 °C. Further, the GI50 in the data set on cancer cell lines is below 0.1 µM. Moreover, the inhibition at 0.1 µM in data set [1] (0.1 μM, mice brain homogenate) lay within 25 to 50%. In addition, in data set [1] (mice brain homogenate), the inhibition at 1 µM fell in the range of 50 to 75%.
